{"source": "paper PMC5507300", "about": "“Antibacterial small molecules targeting the conserved TOPRIM domain of DNA gyrase” (PLoS ONE, 2017)", "key": {"[1]": {"test_system": "E. coli BW25113 ΔtolC/ΔyacG", "assay": "Broth microdilution MIC, E. coli BW25113 ΔtolC/ΔyacG", "format": "cell-based", "procedure": "Compound doubling dilutions were prepared in 100% DMSO (Sigma Aldrich) and 2 μL of each dilution was transferred to a 96-well plate with lid (Thermo Scientific). Inoculum for all MIC testing was prepared using the BBL Prompt Inoculation System (Becton Dickinson, Franklin Lakes, NJ USA) as described by the manufacturer to produce a suspension of cells at approximately 1.5 x 10^8 colony forming units (CFU)/mL [34–36] and a further dilution (1:1000) was made into cation adjusted Mueller-Hinton broth (CAMH broth, Becton-Dickinson). One hundred μL of this inoculum were then transferred to each well of the 96-well plate containing diluted compound (above). Plates were covered and incubated overnight (18 hrs.) at 37°C.\nThe yacG deletion allele from the Keio collection was amplified by PCR (primers: […] and […]) and moved to BW25113 ΔtolC as described below. The E. coli strain BW25113 ΔtolC containing pKD46 [25] was used to inoculate SOB (Invitrogen)/0.2% w/v arabinose (Sigma Aldrich)/ampicillin (100 μg/mL) and grown overnight at 30°C. The overnight culture was then diluted 1/40 into 20 mL fresh SOB/0.2% w/v arabinose/ampicillin (100 μg/mL) and grown at 30°C while shaking for ~3 hrs until OD600 = 0.5. Cells were pelleted by centrifugation at 4000 rpm for 10 min, washed with 40 mL ice cold sterile, distilled H2O, then 3 x 1 mL ice cold 10% glycerol followed by centrifugation at 5000 g for 3 minutes. The pellet was resuspended in 100 μL of 10% glycerol (1/200 of starting culture). For transformation, 5 μL of gel purified PCR product was added to 50 μL cells, mixed, and immediately electroporated in a 0.2 cm gap cuvette at 2.5kV, 25 μF, 200 Ω (BioRad, Hercules, CA USA). Electroporated cells were recovered in 1 mL SOC (Invitrogen)/0.2% arabinose at 37°C for 2 hours with shaking. Cells in amounts of 50 and 950 μL were then plated on LB agar supplemented with kanamycin (25 μg/mL) and incubated overnight at 37°C. Correct gene replacements were verified by PCR."}, "[2]": {"target": "T1, P. aeruginosa DNA gyrase (Pseudomonas aeruginosa, UniProt Q9I7C2)", "T1 construct": "purchased Inspiralis, Norwich, UK", "assay": "Agarose gel DNA gyrase supercoiling assay, P. aeruginosa", "format": "biochemical", "details": "gel-based assay, Fig 3B", "procedure": "Conditions to measure the supercoiling of a relaxed, closed-circular plasmid substrate and cleavage complex stabilization in agarose gels were adapted from the literature and carried out as described below. Plasmid supercoiling reactions were assembled by combining 0.4 μL compound (in 100% DMSO), 12.5 μL H2O, 4 μL 5Xbuffer, 0.4 μL relaxed pUC19 DNA substrate (0.5 μg), […] dilute DNA gyrase (buffer, substrate, and enzyme from New England Biolabs, Beverly, MA). Alternatively the substrate pHOT-1 (TopoGEN, Buena Vista, CO) was used as noted (the substrate from New England Biolabs has been discontinued). P. aeruginosa DNA gyrase was supplied by Inspiralis, Norwich, UK. Reactions were allowed to proceed for 30 min. at 37°C after which 5 μL of stop buffer (5% sarkosyl, 25% glycerol, 1X Blue Juice [Invitrogen, Carlsbad, CA]) were added. Reactions were then extracted with 20 μL chloroform/isoamylOH (24:1) and a portion of the aqueous phase was loaded into a well in a 1% agarose/Tris-borate EDTA gel. Electrophoresis was conducted at 35 VDC until the loading dye migrated about 6.5 cm down the gel. DNA in the gel was then stained in 0.5 μg/mL ethidium bromide in water for 30 min. and rinsed (3X) in H2O. The gel was illuminated with UV light, photographed, and DNA quantitated with an Alpha Imager and accompanying software (ProteinSimple, San Jose, CA). […]"}, "[3]": {"target": "T2, wild-type E. coli DNA gyrase (recombinant GyrA/GyrB) (Escherichia coli, UniProt P0AES6)", "T2 construct": "made in house; host or cells: E. coli BL21(DE3) RIL", "assay": "Gel supercoiling assay, reconstituted wild-type gyrase", "format": "biochemical", "procedure": "Conditions to measure the supercoiling of a relaxed, closed-circular plasmid substrate and cleavage complex stabilization in agarose gels were adapted from the literature and carried out as described below. Plasmid supercoiling reactions were assembled by combining 0.4 μL compound (in 100% DMSO), 12.5 μL H2O, 4 μL 5Xbuffer, 0.4 μL relaxed pUC19 DNA substrate (0.5 μg), […] dilute DNA gyrase (buffer, substrate, and enzyme from New England Biolabs, Beverly, MA). Alternatively the substrate pHOT-1 (TopoGEN, Buena Vista, CO) was used as noted (the substrate from New England Biolabs has been discontinued). P. aeruginosa DNA gyrase was supplied by Inspiralis, Norwich, UK. […] The gel was illuminated with UV light, photographed, and DNA quantitated with an Alpha Imager and accompanying software (ProteinSimple, San Jose, CA). […]\nThe E. coli gyrA and gyrB (wild-type and t1537c (F513L)) genes with a N-terminal His6 tag sequence followed by Tobacco Etch Virus (TEV) cleavage site ([…]) were cloned into pET28(+) vector (EMD Millipore). […] Fractions containing gyrase subunit protein (as monitored by sodium dodecyl sulfate polyacrylamide gel electrophoresis (SDS-PAGE)) were pooled and loaded onto a Q-Sepharose column (GE Healthcare, Princeton, NJ, USA) equilibrated in 20 mM Tris-HCl (pH = 7.9), 25mM NaCl, 10% glycerol, and 2 mM β-mercaptoethanol. […]"}}, "data": [{"smiles": "Cn1ncc2cc(-c3cnnn3C3CCN(C(=O)Nc4cc(Cl)cc(Cl)c4)CC3)ccc21", "note": "[MRL-423]", "values": [{"measurement": "effect of deletion of yacG on potency", "setting": "[1]; E. coli BW25113 (ΔtolC) ΔyacG", "result": "does not affect the potency"}, {"measurement": "MIC", "setting": "[1]; Escherichia coli, BW25113", "result": 0.25, "unit": "µg/mL"}]}, {"smiles": "Cn1ncc2cc(-c3nnnn3C3CCN(C(=O)Nc4ccc(Cl)c(Cl)c4)CC3)ccc21", "note": "[MRL-1082]", "values": [{"measurement": "activity against P. aeruginosa DNA gyrase", "setting": "[2]", "result": "active"}, {"measurement": "IC50", "setting": "[3]", "result": "~3.5", "unit": "µM"}]}]}
